{"source": "patent US10028973B2", "about": "“Using DNA methyltransferase inhibitors to treat calcific aorta valve disease” (Mayo Foundation for Medical Education and Research, priority 2014, dated 2018)", "key": {"mouse aortic valves": {"system": "mouse aortic valves", "assay": "Acute Decitabine treatment of mice with established CAVD: gene expression in aortic valve tissue by quantitative real-time RT-PCR", "format": "in vivo", "details": "ldlr−/−/apoB100/100 (LA) mice on Western diet 6 months, 0.5 or 1 mg/kg/day i.p. for 5 days", "protocol": "FIG. 5 is a pair of graphs plotting the effects of DNMT inhibition with decitabine (DAC) on expression of the pro-osteogenic signaling genes, Runx2 and osteopontin (SPP1), in mouse aortic valves in vivo. DAC was administered using daily intraperitoneal injections at the doses indicated (mg/kg/day) for 5 days, and gene expression was measured using quantitative real-time RT-PCR and mRNA isolated from mouse aortic valve tissue.\nFIG. 6 is a graph plotting the effects of DNMT inhibition with DAC on expression of the anti-osteogenic gene, FABP4 (a PPARγ target). DAC was administered using daily intraperitoneal injections at the doses indicated (mg/kg/day) for 5 days, and gene expression was measured using quantitative real-time RT-PCR and mRNA isolated from mouse aortic valve tissue.\nTo determine whether acute DNA methyltransferase inhibition promotes anti-calcific gene expression patterns in mice with established calcific aortic valve disease, ldlr^−/−/apoB^100/100 (LA) mice were placed on a Western diet for 6 months (which produces mild to moderate valvular dysfunction), and treated with vehicle or Decitabine (5-aza-2′-deoxycytidine; “DAC”) for 5 days (0.5 or 1 mg/kg/day, i.p.). Changes in cardiac and aortic valve function at 3 and 6 months are evaluated. […] The second group is used for semi-quantitative histological/immunohistochemical evaluation of aortic valve (n=10). The third group is used for genome-wide evaluation of gene expression using microarrays (n=20), and the fourth group is used for high-resolution μCT scanning for quantitation of calcium burden in aortic valve and root (n=15).\nQuantitative Real-Time RT-PCR: Aortic valve cusps are dissected, and tissue is processed and stored using commercially available lysis buffer with β-mercaptoethanol (Miller et al., Am J Physiol Heart Circ Physiol 298:H1600-1607, 2010). Quantitative real-time RT-PCR studies confirming array-detected changes in gene expression are performed on a StepOne Plus instrument (Applied Biosystems)."}, "[1]": {"system": "pig aortic valve interstitial cells", "assay": "Calcium deposition in aortic valve interstitial cells in vitro", "format": "cell-based", "details": "FIG. 7", "from_the_text": "FIG. 7 is a graph plotting the effects of DNMT inhibition with DAC calcium deposition in pig aortic valve interstitial cells in vitro."}, "[2]": {"system": "hypercholesterolemic mice", "assay": "Chronic low-dose Decitabine treatment: progression of aortic valve calcification and stenosis (cusp separation distance, echocardiography)", "format": "in vivo, mouse", "details": "FIG. 8", "protocol": "FIG. 8 is a graph plotting cusp separation distance in control mice and in mice treated with DAC (0.1 mg/kg i.p., 2 days/week for 3 months). […] Echocardiographic evaluation of aortic valve function: Echocardiographic evaluation of aortic valve function is conducted as described elsewhere (Miller et al. 2009, supra; Hinton et al., Am J Physiol Heart Circ Physiol 294:[…]-2488, 2008; Barrick et al., Am J Physiol Heart Circ Physiol 297:[…]-75, 2009; and Miller et al., Circ Res 108:1392-1412, 2011). In brief, a Vevo 2200 small animal ultrasound unit is used to evaluate 1) cusp separation distance from M-mode images, 2) peak transvalvular blood velocity, and 3) color Doppler screening for evidence of aortic valve regurgitation. […] Short- and long-axis views of the left ventricle also are acquired to evaluate ventricular function (Berry et al., J Cardiovasc Magn Reson 11:27, 2009)."}}, "data": [{"smiles": "Nc1ncn([C@H]2C[C@H](O)[C@@H](CO)O2)c(=O)n1", "note": "[Decitabine, 5-Aza-2′-deoxycytidine]", "values": [{"measurement": "Sp7 expression", "setting": "mouse aortic valves", "value": "dose-dependent reductions"}, {"measurement": "Runx2 expression", "setting": "mouse aortic valves; FIG. 5", "value": "dose-dependent reductions"}, {"measurement": "PPARγ target gene expression (e.g., FABP4)", "setting": "mouse aortic valves; FIG. 6", "value": "increased PPARγ target gene expression"}, {"measurement": "calcification in aortic valve interstitial cells", "setting": "[1]", "value": "reduced calcification"}, {"measurement": "progression of aortic valve stenosis (cusp separation distance)", "setting": "[2]; 0.1 mg/kg i.p., 2 days/week for 3 months, larger cusp separation distance = improved valve function", "value": "slowed progression of aortic valve stenosis"}, {"measurement": "progression of aortic valve calcification and stenosis", "setting": "[2]; low-dose, hypercholesterolemic mice in vivo", "value": "successfully slowed progression"}]}]}
